Like-named read-outs stand apart in the source and are kept apart here.
Columns and labels:
Btk enzyme (His-Btk) = Btk enzyme (His-Btk) (Homo sapiens (Human), UniProt Q06187); experiment: Btk enzyme activity (IMAP fluorescence polarization assay)
Experimental: Inhibition of kinase activity can be measured using the Immobilized Metal Assay for Phosphochemicals (IMAP) assay. IMAP is a homogeneous fluorescence polarization (FP) assay based on affinity capture of phosphorylated peptide substrates. IMAP uses fluorescein-labeled peptide substrates that, upon phosphorylation by a protein kinase, bind to so-called IMAP nanoparticles, which are derivatized with trivalent metal complexes.
Final peptide substrate concentration in assay is 50 nM.

FynT enzyme = FynT enzyme (Homo sapiens (Human), UniProt P06241); experiment: FynT enzyme activity (IMAP fluorescence polarization assay); format: biochemical; conditions: 60 min pre-incubation, 0.2 μM ATP
Experimental: FynT enzyme activity is measured using the IMAP (immobilized metal ion affinity-based fluorescence polarization) assay as outlined below.
Test compounds and FynT enzyme are pre-incubated 60 minutes at room temperature, before adding 5 μL/well of 400 nM Fluorescin labeled substrate peptide (p34cdc2 substrate peptide, e.g. #R7157/#R7172, Molecular Devices) in KR-buffer. Final peptide substrate concentration in assay is 100 nM. […] Following incubation for 2 h at room temperature the enzyme reaction is stopped by adding 40 μL/well IMAP Progressive Binding Solution (according to suppliers (Molecular Devices) protocol using 75% 1× buffer A and 25% 1× buffer B with 1:600 Progressive Binding Solution). After 60 min incubation at room temperature in the dark the FP signal is read. […] Values are calculated as percentage of the difference in readout (ΔmPi) of the controls with and without ATP. EC50 values are determined by curve fitting of the experimental results using Activity Base.

Lyn enzyme = Lyn enzyme (Homo sapiens (Human), UniProt P07948); experiment: Lyn enzyme activity (IMAP fluorescence polarization assay)
Sequence of Lyn enzyme (P07948 whole entry): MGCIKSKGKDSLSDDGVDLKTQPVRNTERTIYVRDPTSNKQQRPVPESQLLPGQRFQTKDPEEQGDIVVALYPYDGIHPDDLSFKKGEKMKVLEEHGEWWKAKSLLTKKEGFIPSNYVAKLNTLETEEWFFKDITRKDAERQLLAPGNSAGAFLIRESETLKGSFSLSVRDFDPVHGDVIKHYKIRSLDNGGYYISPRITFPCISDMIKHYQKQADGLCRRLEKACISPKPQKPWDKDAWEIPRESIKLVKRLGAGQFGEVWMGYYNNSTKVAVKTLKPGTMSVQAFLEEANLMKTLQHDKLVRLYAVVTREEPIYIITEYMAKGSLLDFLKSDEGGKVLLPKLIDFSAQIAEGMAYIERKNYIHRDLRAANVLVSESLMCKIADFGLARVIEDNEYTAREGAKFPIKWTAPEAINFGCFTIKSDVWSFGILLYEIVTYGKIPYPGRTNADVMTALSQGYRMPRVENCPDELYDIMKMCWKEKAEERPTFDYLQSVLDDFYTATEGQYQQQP

Src enzyme = Src enzyme (Homo sapiens (Human), UniProt P12931); experiment: Src enzyme activity (IMAP fluorescence polarization assay)
Sequence of Src enzyme (P12931 whole entry, looked up): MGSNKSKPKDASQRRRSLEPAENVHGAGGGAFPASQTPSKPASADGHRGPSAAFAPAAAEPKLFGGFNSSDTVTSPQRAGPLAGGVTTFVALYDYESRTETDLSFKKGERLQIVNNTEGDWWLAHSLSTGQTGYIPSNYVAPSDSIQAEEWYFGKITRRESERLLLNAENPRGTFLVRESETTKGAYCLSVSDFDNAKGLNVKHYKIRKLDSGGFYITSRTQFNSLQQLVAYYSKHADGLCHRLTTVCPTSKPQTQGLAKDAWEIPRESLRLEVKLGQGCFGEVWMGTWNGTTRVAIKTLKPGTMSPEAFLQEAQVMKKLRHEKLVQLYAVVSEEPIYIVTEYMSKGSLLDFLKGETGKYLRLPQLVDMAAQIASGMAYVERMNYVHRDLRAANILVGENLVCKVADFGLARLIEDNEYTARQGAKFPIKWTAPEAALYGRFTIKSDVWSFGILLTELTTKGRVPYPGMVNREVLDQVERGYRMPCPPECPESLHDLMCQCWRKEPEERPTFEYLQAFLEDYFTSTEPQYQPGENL

Lck enzyme = Lck enzyme (Homo sapiens (Human), UniProt P06239); experiment: Lck enzyme activity (IMAP fluorescence polarization assay)
Sequence of Lck enzyme (P06239 whole entry): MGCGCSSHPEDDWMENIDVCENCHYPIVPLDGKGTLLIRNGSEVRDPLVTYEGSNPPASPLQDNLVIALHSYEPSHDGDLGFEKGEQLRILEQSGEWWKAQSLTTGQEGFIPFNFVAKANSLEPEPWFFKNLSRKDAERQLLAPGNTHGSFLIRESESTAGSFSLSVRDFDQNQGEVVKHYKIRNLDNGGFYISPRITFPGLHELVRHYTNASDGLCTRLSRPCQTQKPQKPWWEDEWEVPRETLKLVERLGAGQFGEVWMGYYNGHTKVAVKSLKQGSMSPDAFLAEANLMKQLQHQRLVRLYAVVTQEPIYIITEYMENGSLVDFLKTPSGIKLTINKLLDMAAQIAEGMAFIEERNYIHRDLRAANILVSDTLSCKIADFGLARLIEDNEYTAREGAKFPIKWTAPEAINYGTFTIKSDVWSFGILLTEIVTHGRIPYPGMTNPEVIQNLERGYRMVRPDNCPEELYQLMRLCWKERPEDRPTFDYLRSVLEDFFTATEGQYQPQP

[1] = read-out: EC50 Btk activity values, IMAP, 60 min pre-incubation, 5 μM ATP, bin bound in nM
[2] = read-out: EC50 Lyn activity values, 60 min pre-incubation, 2 μM ATP, bin bound in μM
[3] = read-out: EC50 Src activity values, IMAP, 60 min pre-incubation, 4 μM ATP
[4] = read-out: EC50 Lck activity values, IMAP, 60 min pre-incubation, 6 μM ATP, bin bound in μM

Sequence of Btk enzyme (His-Btk) (Q06187 whole entry): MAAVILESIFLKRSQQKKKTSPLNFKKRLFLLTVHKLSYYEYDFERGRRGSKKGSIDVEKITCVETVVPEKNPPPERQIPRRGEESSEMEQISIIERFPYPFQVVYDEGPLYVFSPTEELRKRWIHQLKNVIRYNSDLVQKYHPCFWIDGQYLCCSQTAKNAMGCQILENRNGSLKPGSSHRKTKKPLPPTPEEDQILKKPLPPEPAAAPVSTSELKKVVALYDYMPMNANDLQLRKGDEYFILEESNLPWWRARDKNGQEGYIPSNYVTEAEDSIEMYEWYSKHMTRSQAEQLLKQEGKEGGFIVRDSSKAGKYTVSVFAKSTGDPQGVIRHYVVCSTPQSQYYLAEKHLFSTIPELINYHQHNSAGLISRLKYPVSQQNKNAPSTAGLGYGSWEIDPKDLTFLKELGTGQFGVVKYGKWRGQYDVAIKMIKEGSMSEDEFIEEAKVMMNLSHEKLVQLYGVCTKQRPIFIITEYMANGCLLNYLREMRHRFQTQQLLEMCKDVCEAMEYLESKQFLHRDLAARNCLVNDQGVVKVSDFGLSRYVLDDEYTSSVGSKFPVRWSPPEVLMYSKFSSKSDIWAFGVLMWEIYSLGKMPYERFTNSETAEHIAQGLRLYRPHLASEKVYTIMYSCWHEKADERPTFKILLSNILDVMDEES
Sequence of FynT enzyme (P06241 other isoform, or with tags, fused parts or gaps): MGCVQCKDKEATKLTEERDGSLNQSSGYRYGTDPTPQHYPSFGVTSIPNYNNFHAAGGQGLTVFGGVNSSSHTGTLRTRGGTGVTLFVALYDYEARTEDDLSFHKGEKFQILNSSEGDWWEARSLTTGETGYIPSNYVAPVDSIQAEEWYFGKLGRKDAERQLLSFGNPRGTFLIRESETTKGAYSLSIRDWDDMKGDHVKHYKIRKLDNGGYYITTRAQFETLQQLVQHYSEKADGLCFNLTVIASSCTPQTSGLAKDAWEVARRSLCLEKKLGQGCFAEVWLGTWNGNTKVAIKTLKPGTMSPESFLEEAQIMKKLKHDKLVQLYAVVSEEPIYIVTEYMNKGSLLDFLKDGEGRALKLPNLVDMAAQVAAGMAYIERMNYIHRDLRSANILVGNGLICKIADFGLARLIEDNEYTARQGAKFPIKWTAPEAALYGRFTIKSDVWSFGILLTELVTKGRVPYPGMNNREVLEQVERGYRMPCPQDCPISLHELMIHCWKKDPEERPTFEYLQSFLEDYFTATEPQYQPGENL

EC50 (Btk enzyme (His-Btk); [1])	EC50 (FynT enzyme)	EC50 (Lyn enzyme; [2])	EC50 (Src enzyme; [3])	EC50 (Lck enzyme; [4])	EC50 Lck activity values (Lck enzyme; IMAP, 60 min pre-incubation, 6 μM ATP, bin bound in μM)	EC50 (Btk enzyme (His-Btk))	EC50 Btk activity values (Btk enzyme (His-Btk); IMAP, 60 min pre-incubation, 5 μM ATP, bin bound in nM)	Structure (SMILES)	EC50 (Lck enzyme)	EC50 (Lyn enzyme; EC50 Lyn activity values, 60 min pre-incubation, 2 μM ATP, bin bound in μM)	EC50 (Src enzyme)
< 10 nM	≥ 1 µM	≥ 1 µM	≥ 1 µM	≥ 1 µM				C=CC(=O)N1CCCCCC1c1nc(-c2ccc(C(=O)Nc3ccccn3)cc2)c2c(N)nccn12 (centres unmarked) [Example 37, 4-(3-(1-Acrloylazepan-2-yl)-8-aminoimidazo[1,5-a]pyrazin-1-yl)-N-(pyridin-2-yl)benzamide]			
< 10 nM	≥ 1 µM	≥ 1 µM	≥ 1 µM	≥ 1 µM				CC#CC(=O)N1CCC[C@H]1c1nc(-c2ccc(C(=O)Nc3cc(C(F)(F)F)ccn3)cc2)c2c(N)nccn12 [Example 10, (S)-4-(8-Amino-3-(1-but-2-ynoylpyrrolidin-2-yl)imidazo[1,5-a]pyrazin-1-yl)-N-(4-(trifluoromethyl)pyridin-2-yl)benzamide]			
< 10 nM	≥ 1 µM	≥ 1 µM	≥ 1 µM	≥ 1 µM				Nc1nccn2c([C@@H]3CCCN3C(=O)C#CC3CC3)nc(-c3ccc(C(=O)Nc4ccccn4)cc3)c12 [Example 35, (S)-4-(8-Amino-3-(1-(3-cyclopropylpropioloyl)pyrrolidin-2-yl)imidazo[1,5-a]pyrazin-1-yl)-N-(pyridin-2-yl)benzamide]			
< 10 nM	≥ 1 µM	≥ 1 µM	≥ 1 µM	≥ 1 µM				COC/C=C/C(=O)N1CCOC[C@H]1c1nc(-c2ccc(C(=O)Nc3ccccn3)cc2)c2c(N)nccn12 [Example 120, (R,E)-4-(8-amino-3-(4-(4-methoxybut-2-enoyl)morpholin-3-yl)imidazo[1,5-a]pyrazin-1-yl)-N-(pyridin-2-yl)benzamide]			
< 10 nM	≥ 1 µM	≥ 1 µM	≥ 1 µM	≥ 1 µM				CC#CC(=O)N1CCCC[C@H]1c1nc(-c2ccc(C(=O)Nc3cc(F)ccn3)cc2)c2c(N)nccn12 [Example 44, (S)-4-(8-amino-3-(1-but-2-ynoylpiperidin-2-yl)imidazo[1,5-a]pyrazin-1-yl)-N-(4-fluoropyridin-2-yl)benzamide]			
< 10 nM	≥ 1 µM	≥ 1 µM	≥ 1 µM	≥ 1 µM				CC#CC(=O)N1CCC[C@H]1c1nc(-c2ccc(C(=O)Nc3cc(CC)ccn3)cc2)c2c(N)nccn12 [Example 131, (S)-4-(8-amino-3-(1-but-2-ynoylpyrrolidin-2-yl)imidazo[1,5-a]pyrazin-1-yl)-N-(4-ethylpyridin-2-yl)benzamide]			
< 10 nM	≥ 1 µM	≥ 1 µM	≥ 1 µM	≥ 1 µM				CC#CC(=O)N1CCCC[C@H]1c1nc(-c2ccc(C(=O)Nc3ccccn3)cc2)c2c(N)nccn12 [Example 45, (S)-4-(8-amino-3-(1-but-2-ynoylpiperidin-2-yl)imidazo[1,5-a]pyrazin-1-yl)-N-(pyridin-2-yl)benzamide]			
< 10 nM	≥ 1 µM	≥ 1 µM	≥ 1 µM	≥ 1 µM				C=CC(=O)N1CCCC[C@H]1c1nc(-c2ccc(C(=O)Nc3cc(CCC)ccn3)cc2)c2c(N)nccn12 [Example 61, (S)-4-(3-(1-acryloylpiperidin-2-yl)-8-aminoimidazo[1,5-a]pyrazin-1-yl)-N-(4-propylpyridin-2-yl)benzamide]			
< 10 nM	≥ 1 µM	≥ 1 µM	≥ 1 µM		<1 µM			CCCc1ccnc(NC(=O)c2ccc(-c3nc([C@H](C)N(C)C(=O)/C=C/CN(C)C)n4ccnc(N)c34)cc2)c1 [Example 76, (S,E)-4-(8-amino-3-(1-(4-(dimethylamino)-N-methylbut-2-enamido)ethyl)imidazo[1,5-a]pyrazin-1-yl)-N-(4-propylpyridin-2-yl)benzamide]	0.1 to 1 µM		
< 10 nM	≥ 1 µM	≥ 1 µM	≥ 1 µM	≥ 1 µM				Cc1ccnc(NC(=O)c2ccc(-c3nc([C@@H]4CCCN4C(=O)c4ccnc(Cl)n4)n4ccnc(N)c34)cc2)c1 [Example 129, (S)-4-(8-amino-3-(1-(2-chloropyrimidine-4-carbonyl)pyrrolidin-2-yl)imidazo[1,5-a]pyrazin-1-yl)-N-(4-methylpyridin-2-yl)benzamide]			
< 10 nM	≥ 1 µM	≥ 1 µM	≥ 1 µM	≥ 1 µM				CCCc1ccnc(NC(=O)c2ccc(-c3nc([C@@H]4CCCCN4C(=O)c4ccnc(Cl)n4)n4ccnc(N)c34)cc2)c1 [Example 107, (S)-4-(8-amino-3-(1-(2-chloropyrimidine-4-carbonyl)piperidin-2-yl)imidazo[1,5-a]pyrazin-1-yl)-N-(4-propylpyridin-2-yl)benzamide]			
	≥ 1 µM	≥ 1 µM	≥ 1 µM	≥ 1 µM		10 to 100 nM	<100 nM	Nc1nccn2c([C@@H]3CCCN3C(=O)c3ccnc(Cl)n3)nc(-c3ccc(C(=O)Nc4ccccn4)c(F)c3)c12 [Example 84, (S)-4-(8-amino-3-(1-(2-chloropyrimidine-4-carbonyl)pyrrolidin-2-yl)imidazo[1,5-a]pyrazin-1-yl)-2-fluoro-N-(pyridin-2-yl)benzamide]			
< 10 nM	≥ 1 µM	≥ 1 µM	≥ 1 µM	≥ 1 µM				C=CC(=O)N1CCC[C@H]1c1nc(-c2ccc(C(=O)Nc3nccs3)cc2)c2c(N)nccn12 [Example 101, (S)-4-(3-(1-acryloylpyrrolidin-2-yl)-8-aminoimidazo[1,5-a]pyrazin-1-yl)-N-(thiazol-2-yl)benzamide]			
< 10 nM	≥ 1 µM	≥ 1 µM	≥ 1 µM	≥ 1 µM				CC#CC(=O)N1CCCC[C@H]1c1nc(-c2ccc(C(=O)Nc3cc(CCC)ccn3)c(OC)c2)c2c(N)nccn12 [Example 110, (S)-4-(8-amino-3-(1-but-2-ynoylpiperidin-2-yl)imidazo[1,5-a]pyrazin-1-yl)-2-methoxy-N-(4-propylpyridin-2-yl)benzamide]			
< 10 nM	≥ 1 µM	≥ 1 µM	≥ 1 µM	≥ 1 µM				CC#CC(=O)N1CCC[C@H]1c1nc(-c2ccc(C(=O)Nc3cc(C)ccn3)cc2)c2c(N)nccn12 [Example 8, (S)-4-(8-Amino-3-(1-but-2-ynoylpyrrolidin-2-yl)imidazo[1,5-a]pyrazin-1-yl)-N-(4-methylpyridin-2-yl)benzamide]			
< 10 nM	≥ 1 µM	≥ 1 µM	≥ 1 µM	≥ 1 µM				CC(C)c1ccnc(NC(=O)c2ccc(-c3nc([C@@H]4CCCN4C(=O)/C=C/CN(C)C)n4ccnc(N)c34)cc2)c1 [Example 65, (S,E)-4-(8-amino-3-(1-(4-(dimethylamino)but-2-enoyl)pyrrolidin-2-yl)imidazo[1,5-a]pyrazin-1-yl)-N-(4-isopropylpyridin-2-yl)benzamide]			
	≥ 1 µM	≥ 1 µM	≥ 1 µM	≥ 1 µM				CN(C)C/C=C/C(=O)N1CCC[C@H]1c1nc(-c2ccc(C(=O)Nc3ccccn3)cc2)c2c(N)nccn12 [Example 127, (S,E)-4-(8-amino-3-(1-(4-(dimethylamino)but-2-enoyl)pyrrolidin-2-yl)imidazo[1,5-a]pyrazin-1-yl)-N-(pyridin-2-yl)benzamide]			
< 10 nM								CN(C)C/C=C/C(=O)N1CCC[C@H]1c1nc(-c2ccc(C(=O)Nc3ccccn3)cc2)c2c(N)nccn12 [Example 3, (S,E)-4-(8-Amino-3-(1-(4-(dimethylamino)but-2-enoyl)pyrrolidin-2-yl)imidazo[1,5-a]pyrazin-1-yl)-N-(pyridin-2-yl)benzamide]			

Structure (SMILES)	EC50 (Btk enzyme (His-Btk); [1])	EC50 (FynT enzyme)	EC50 (Lyn enzyme; [2])	EC50 (Src enzyme; [3])	EC50 (Lck enzyme; [4])	EC50 Lck activity values (Lck enzyme; IMAP, 60 min pre-incubation, 6 μM ATP, bin bound in μM)	EC50 (Btk enzyme (His-Btk))	EC50 Btk activity values (Btk enzyme (His-Btk); IMAP, 60 min pre-incubation, 5 μM ATP, bin bound in nM)	EC50 (Lck enzyme)	EC50 (Lyn enzyme; EC50 Lyn activity values, 60 min pre-incubation, 2 μM ATP, bin bound in μM)	EC50 (Src enzyme)
CC#CC(=O)N1CCC[C@H]1c1nc(-c2ccc(C(=O)Nc3ccccn3)cc2)c2c(N)nccn12 [Example 6, (S)-4-(8-amino-3-(1-but-2-ynoylpyrrolidin-2-yl)imidazo[1,5-a]pyrazin-1-yl)-N-(pyridin-2-yl)benzamide]		≥ 1 µM							≥ 1 µM	≥ 1 µM	≥ 1 µM
C/C=C/C(=O)N1CCC[C@H]1c1nc(-c2ccc(C(=O)Nc3ccccn3)cc2)c2c(N)nccn12 [Example 93, (S,E)-4-(8-amino-3-(1-but-2-enoylpyrrolidin-2-yl)imidazo[1,5-a]pyrazin-1-yl)-N-(pyridin-2-yl)benzamide]		≥ 1 µM	≥ 1 µM	≥ 1 µM					≥ 1 µM		

Reference: patent US9758524B2, “4-imidazopyridazin-1-yl-benzamides as Btk inhibitors” (Merck Sharp & Dohme B.V., priority 2011, dated 2017)
